Results on 1 compound are retold here after patent US20240109895A1, “OXASPIRO SUBSTITUTED PYRROLOPYRAZOLE DERIVATIVE, INTERMEDIATE THEREOF, AND PREPARATION METHOD THEREFOR” (SHANGHAI HAIYAN PHARMACEUTICAL TECHNOLOGY CO., LTD., priority 2020, published 2024).

The EC50 is the concentration that produces a half-maximal response. The term Emax denotes the maximal effect, on the per cent scale that the assay sets.

Assay [1] concerns cAMP. The assay is described as follows: HTRF-cAMP cell assay. For orientation: In TR-FRET formats the signal depends on donor and acceptor labels being close together.
The test system of assay [2] is β-arrestin. Nature of the assay: β-arrestin cell assay.

As for `CC(C)[C@@H]1C[C@H](NCC[C@@]2(c3ccccn3)CCOC3(CCCC3)C2)c2ccnn21` [Compound I-1], in assay [1] (0.75 h, read-out: cAMP EC50(nM)), the EC50 was determined as 6 nM. Further, the Emax in assay [1] (read-out: cAMP Emax(%) Morphine is 100%) was 86.4%; in assay [2] (1.5 h, read-out: β-arrestin Emax(%) Morphine is 100%), 1.3%. Moreover, the “bias (cAMP versus β-arrestin)” value in assay [2] (comparison of Table 1 and Table 2) is “good bias”.
